Source: patent US7655677B2, “Composition and method for controlling house insect pest” (priority 2002, dated 2010)

Assays:
Type in all cases: in vivo
Reticulitermes speratus [1] = assay: Test Example 21: treated sandy soil with weather resistance operation, termite mortality; conditions: 1000 ppm
Description: Sandy soil passed through a sieve of 20 mesh was dried at a temperature of 60° C. to a constant weight, and 12 g of the soil thus obtained, was packed into a cup having a diameter of 60 mm. 3 ml of a pesticide solution adjusted to a predetermined concentration, was added and sufficiently mixed, whereupon it was maintained in a constant temperature chamber of 40° C. for 95 days to carry out the weather resistance operation. After the weather resistance operation, 10 termite workers (Reticulitermes speratus) were released on this test soil. The cup was placed in a container having wet cotton laid over the bottom, and the container was maintained at room temperature of 25° C. 2 Days later and 6 days later after releasing the termites, the number of dead termites in the cup was examined, and the mortality was calculated.

Reticulitermes speratus [2] = assay: Test Example 10: coated Japanese red pine wood block, termite mortality and weight loss after 24 days; conditions: wood block coated with 0.2% solution
Description: Mean weight loss (%) of the wood block=(W1−W2/W1)×100
A solution containing a sample compound in a predetermined concentration was coated by a paint brush in an amount of 110±10 mg on a rectangular parallelpiped wood block of Japanese red pine (20 mm×10 mm×10 mm). The treated wood block was naturally dried in a dark room of 25° C. for 14 days. Then, the treated wood block and a non-treated wood block were dried at a temperature of 60° C. for 72 hours, and their weights (W1) were measured, and they were used as test specimens. Such a test specimen was put into a cylindrical cup made of acrylic resin (i.e. a cup having a hole with a diameter of 10 mm formed in the bottom and having hard plaster (Dental Stone) set at the bottom in a thickness of 10 mm), and 150 termite workers and 10 termite soldiers (Reticulitermes speratus) were released thereon. The cup was placed in a container having wet cotton laid over the bottom, and the container was maintained at room temperature of 25° C. for 24 days, whereupon the mortality of termites in the cup was examined. Further, the test specimen was taken out from the cup, and the deposited substance was removed from the surface of the test specimen. After drying at a temperature of 60° C. for 72 hours, it was weighed to obtain the weight (W2), whereupon the mean weight loss was calculated.

Priplaneta americana = assay: Test Example 12: mouse feed poison bait, mortality with time; conditions: bait 1%
Description: 1 g of feeding stuff for mice was treated with 0.5 ml of an acetone solution containing 10 mg of a sample compound and put in a constant temperature chamber at 40° C. for 20 hours to sufficiently evaporate acetone, whereby a poison bait chemical containing 1% of the sample compound was prepared. Then, this poison bait chemical was put into a cup together with a wet cotton, and 10 […] (Priplaneta americana) were released and kept at 25° C. in a breeding room, whereby the mortality was examined as the time passed.

Coptotermes formosanus [3] = assay: Test Example 17: dust placed in ant trail, termite mortality with time; conditions: 0.5% dust, 10 mg in ant trail
Description: Soil was packed in a cylindrical connection section made of an acrylic resin connecting two cups made of acrylic resin (i.e. cups each having a hole with a diameter of 10 mm formed in the bottom and having hard plaster (Dental Stone) set at the bottom in a thickness of 10 mm), and 30 termite workers and 3 termite soldiers (Coptotermes formosanus) were released to let them form an ant trail. Then, at the center portion of the ant trail, 10 mg of a dust prepared by mixing in a mortar 0.5 part by weight of a sample compound and 99.5 parts by weight of cellulose powder, was placed. This test apparatus was put into a container having wet cotton laid over the bottom and kept at room temperature of 25° C., whereby the number of dead termites in the cup was examined as the time passed, and the mortality was calculated. Further, for the purpose of comparison, a similar test was carried out with respect to a dust containing 0.5% of fipronil (Terminal Dust, tradename, manufactured by Aventis Crop Science Shionogi K.K.).

Coptotermes formosanus [4] = assay: Test Example 24: treated filter paper in Petri dish, termite mortality on 21st or 28th day; conditions: 21st day
Description: Mortality (%)=(Number of dead termite workers/15 termite workers)×100
Further, by the Colby's formula, the theoretical value (%) of mortality can be calculated. In a case where the actual mortality (%) is higher than the theoretical value (%), it can be said that the composition of the present invention has a synergistic effect for controlling the house insect pest.
A filter paper having a diameter of 80 mm was placed in a plastic Petri dish, and 1 ml of a pesticide solution having a predetermined concentration was dropped thereon, whereupon 10 termite workers (Coptotermes formosanus) were released, and a cover was put on the Petri dish. This plastic Petri dish was put in a container having wet cotton laid over the bottom and maintained at room temperature of 25° C. On 21 or 28th day after the treatment, the number of dead termites in the Petri dish was examined, and the mortality was calculated in the same manner as Test Example 1.

Coptotermes formosanus [5] = assay: Test Example 14: Japanese red pine poison bait, spread from bait-treated to non-treated termites; conditions: for Mortality TS (Termite soldiers): 5 non-treated soldiers; for Mortality TW (Termite workers): 5 treated + 5 non-treated workers
Description: A Japanese red pine poison bait chemical prepared in the same manner as in Test Example 13, was placed in a cylindrical cup made of acrylic resin (i.e. a cup having a hole with a diameter of 10 mm formed in the bottom and having hard plaster (Dental Stone) set at the bottom in a thickness of 10 mm), and 5 termite workers (Coptotermes formosanus) starved for 3 days, were released and permitted to ingest for 48 hours. Such bait-treated 5 alive termite workers were transferred together with non-treated 5 termite workers and 5 termite soldiers to a cup wherein a filter paper containing water was placed, and they were kept at room temperature of 25° C., whereby the number of dead termite workers and soldiers was examined as the time passed, and the mortality was calculated by the following formula.
Mortality of workers (%)=(number of dead termite workers/treated 5 termite workers+non-treated 5 termite workers)×100
Mortality of soldiers (%) (number of dead termite soldiers/non-treated 5 termite soldiers)×100

[6] = weather resistance operation Negative, 2 Days later
[7] = weather resistance operation Positive (40° C. for 95 days), 2 Days later

Q: `CC(=NN=C(Cc1ccc(C(F)(F)F)cc1)c1ccc(F)cc1)N(C)C` [Compound No. II-2, [4′-fluoro-2-(4-trifluoromethylphenyl)acetophenone]N′-[1-(dimethylamino)ethylidene]hydrazone] was tested. Which Mortality (Reticulitermes speratus [1]; [6]) did it give?
A: 50 (50) %

Q: And the abnormal ratio (Reticulitermes speratus [1]; [6])?
A: 50 (50) %

Q: What about the Mortality (Reticulitermes speratus [1]; weather resistance operation Negative, 6 Days later) of the same compound?
A: 100%

Q: And the Mortality (Reticulitermes speratus [1]; [7])?
A: 10%

Q: And the abnormal ratio (Reticulitermes speratus [1]; [7])?
A: 15%

Q: And the Mortality (Reticulitermes speratus [1]; weather resistance operation Positive (40° C. for 95 days), 6 Days later)?
A: 95%

Q: What about the Mean weight loss (Reticulitermes speratus [2]) of the same compound?
A: 2.9%

Q: What about the “Mortality Termite soldiers” value (Reticulitermes speratus [2]) of the same compound?
A: 100%

Q: What about the “Mortality Termite workers” value (Reticulitermes speratus [2]) of the same compound?
A: 100%

Q: What about the Mortality (Priplaneta americana; 1 Day later) of the same compound?
A: 0%

Q: And the Mortality (Priplaneta americana; 8 Days later)?
A: 0%

Q: What about the Mortality (Priplaneta americana; 48 Days later) of the same compound?
A: 30%

Q: And the Mortality (Coptotermes formosanus [3]; 6 Days later)?
A: 37%

Q: What about the Mortality (Coptotermes formosanus [3]; 11 Days later) of the same compound?
A: 100%

Q: And the Mortality (Coptotermes formosanus [3]; 15 Days later)?
A: 100%

Q: What about the Mortality (Coptotermes formosanus [4]; II-2 5 ppm alone) of the same compound?
A: 0%

Q: What about the Mortality (Coptotermes formosanus [4]; II-2 10 ppm alone) of the same compound?
A: 20%

Q: What about the Mortality (Coptotermes formosanus [4]; II-2 20 ppm alone) of the same compound?
A: 60%

Q: What about the “Mortality TS (Termite soldiers)” value (Coptotermes formosanus [5]; bait 0.05%, 6 Days later) of the same compound?
A: 0%

Q: And the “Mortality TW (Termite workers)” value (Coptotermes formosanus [5]; bait 0.05%, 6 Days later)?
A: 30%

Q: What about the “Mortality TS (Termite soldiers)” value (Coptotermes formosanus [5]; bait 0.05%, 8 Days later) of the same compound?
A: 0%

Q: What about the “Mortality TW (Termite workers)” value (Coptotermes formosanus [5]; bait 0.05%, 8 Days later) of the same compound?
A: 30%

Q: And the “Mortality TS (Termite soldiers)” value (Coptotermes formosanus [5]; bait 0.05%, 15 Days later)?
A: 40%

Q: And the “Mortality TW (Termite workers)” value (Coptotermes formosanus [5]; bait 0.05%, 15 Days later)?
A: 70%

Q: And the “Mortality TS (Termite soldiers)” value (Coptotermes formosanus [5]; bait 0.1%, 6 Days later)?
A: 0%

Q: And the “Mortality TW (Termite workers)” value (Coptotermes formosanus [5]; bait 0.1%, 6 Days later)?
A: 50%

Q: And the “Mortality TS (Termite soldiers)” value (Coptotermes formosanus [5]; bait 0.1%, 8 Days later)?
A: 20%

Q: What about the “Mortality TW (Termite workers)” value (Coptotermes formosanus [5]; bait 0.1%, 8 Days later) of the same compound?
A: 60%

Q: What about the “Mortality TS (Termite soldiers)” value (Coptotermes formosanus [5]; bait 0.1%, 15 Days later) of the same compound?
A: 100%

Q: And the “Mortality TW (Termite workers)” value (Coptotermes formosanus [5]; bait 0.1%, 15 Days later)?
A: 100%
